Laboratory results taken from the supplement of paper PMC13207355.

Assays:
Details in all cases: exposure time: 72 h
[1] = test system: E57 (patient-derived glioblastoma stem cells of mesenchymal subtype); assay: surviving fraction (nuclei count normalised to DMSO); higher = more cells surviving (less toxic)
[2] = test system: FT3469 (normal neural stem cell line); assay: as above
[3] = test system: E34 (patient-derived glioblastoma stem cells of proneural subtype); assay: as above
[4] = test system: E28 (patient-derived glioblastoma stem cells of classical subtype); assay: as above
[5] = test system: E13 (patient-derived glioblastoma stem cells of classical subtype); assay: as above
[6] = test system: E21 (patient-derived glioblastoma stem cells of mesenchymal subtype); assay: as above
[7] = test system: E31 (patient-derived glioblastoma stem cells of proneural subtype); assay: as above
[8] = test system: E57; assay: phenotypic distance (Euclidean, principal components) from DMSO controls (arbitrary units); higher = stronger morphological change
[9] = test system: FT3469; assay: as above
[10] = test system: E34; assay: as above
[11] = test system: E28; assay: as above
[12] = test system: E13; assay: as above
[13] = test system: E21; assay: as above
[14] = test system: E31; assay: as above
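Wherever phenotypic distance (Euclidean, principal components) from DMSO controls is given: cell Painting imaging in 384-well plates, CellProfiler features reduced to at least 20 principal components, Euclidean distance versus same-plate DMSO vehicle wells (0.1% v/v), median over six images per well.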
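Wherever surviving fraction (nuclei count normalised to DMSO) is given: nuclei counted by high-content imaging of Hoechst-stained cells in laminin-coated 384-well plates, relative to 0.1% DMSO vehicle wells, with staurosporine as cell-death control.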

CCN(CC)Cc1ccc(C(=O)N(CCc2ccccc2OC)[C@@H]2CCNC2)cc1
Details | phenotypic distance | surviving fraction
[1], 4.1 nM | – | 1.16
[1], 12.3 nM | – | 1.03
[1], 37 nM | – | 1.08
[1], 111.1 nM | – | 1.03
[1], 333.3 nM | – | 1.06
[1], 1000 nM | – | 1.05
[1], 3000 nM | – | 0.433
[2], 4.1 nM | – | 0.944
[2], 12.3 nM | – | 1.04
[2], 37 nM | – | 0.955
[2], 111.1 nM | – | 1.11
[2], 333.3 nM | – | 1.21
[2], 1000 nM | – | 1.35
[2], 3000 nM | – | 1.18
[3], 4.1 nM | – | 0.806
[3], 12.3 nM | – | 1
[3], 37 nM | – | 0.941
[3], 111.1 nM | – | 1.12
[3], 333.3 nM | – | 1.05
[3], 1000 nM | – | 0.786
[3], 3000 nM | – | 0.859
[4], 4.1 nM | – | 0.904
[4], 12.3 nM | – | 1.11
[4], 37 nM | – | 1.04
[4], 111.1 nM | – | 1.12
[4], 333.3 nM | – | 1.03
[4], 1000 nM | – | 1.13
[4], 3000 nM | – | 0.601
[5], 4.1 nM | – | 1.08
[5], 12.3 nM | – | 0.868
[5], 37 nM | – | 0.939
[5], 111.1 nM | – | 0.916
[5], 333.3 nM | – | 0.929
[5], 1000 nM | – | 0.865
[5], 3000 nM | – | 0.251
[6], 4.1 nM | – | 0.952
[6], 12.3 nM | – | 0.993
[6], 37 nM | – | 1
[6], 111.1 nM | – | 0.952
[6], 333.3 nM | – | 0.919
[6], 1000 nM | – | 0.996
[6], 3000 nM | – | 0.663
[7], 4.1 nM | – | 1.06
[7], 12.3 nM | – | 1.02
[7], 37 nM | – | 1.01
[7], 111.1 nM | – | 1.19
[7], 333.3 nM | – | 0.914
[7], 1000 nM | – | 1.11
[7], 3000 nM | – | 0.62
[8], 4.1 nM | 0.619 | –
[8], 12.3 nM | 0.993 | –
[8], 37 nM | 0.517 | –
[8], 111.1 nM | 0.737 | –
[8], 333.3 nM | 0.532 | –
[8], 1000 nM | 0.717 | –
[8], 3000 nM | 7.97 | –
[9], 4.1 nM | 0.348 | –
[9], 12.3 nM | 0.837 | –
[9], 37 nM | 0.511 | –
[9], 111.1 nM | 0.773 | –
[9], 333.3 nM | 0.915 | –
[9], 1000 nM | 1.23 | –
[9], 3000 nM | 2.24 | –
[10], 4.1 nM | 0.768 | –
[10], 12.3 nM | 0.429 | –
[10], 37 nM | 0.97 | –
[10], 111.1 nM | 1.09 | –
[10], 333.3 nM | 1.04 | –
[10], 1000 nM | 0.887 | –
[10], 3000 nM | 1.55 | –
[11], 4.1 nM | 0.583 | –
[11], 12.3 nM | 0.51 | –
[11], 37 nM | 0.826 | –
[11], 111.1 nM | 0.771 | –
[11], 333.3 nM | 0.874 | –
[11], 1000 nM | 0.721 | –
[11], 3000 nM | 4.84 | –
[12], 4.1 nM | 0.886 | –
[12], 12.3 nM | 0.664 | –
[12], 37 nM | 0.732 | –
[12], 111.1 nM | 0.746 | –
[12], 333.3 nM | 0.975 | –
[12], 1000 nM | 0.586 | –
[12], 3000 nM | 6.33 | –
[13], 4.1 nM | 0.354 | –
[13], 12.3 nM | 0.793 | –
[13], 37 nM | 0.496 | –
[13], 111.1 nM | 0.901 | –
[13], 333.3 nM | 4.65 | –
[13], 1000 nM | 0.624 | –
[13], 3000 nM | 4.48 | –
[14], 4.1 nM | 0.43 | –
[14], 12.3 nM | 0.532 | –
[14], 37 nM | 0.762 | –
[14], 111.1 nM | 0.583 | –
[14], 333.3 nM | 0.607 | –
[14], 1000 nM | 1.18 | –
[14], 3000 nM | 5.34 | –

CC[C@@]1(O)C(=O)OCc2c1cc1n(c2=O)Cc2cc3c(CN(C)C)c(O)ccc3nc2-1 [Topotecan]
Details | phenotypic distance | surviving fraction
[1], 4.1 nM | – | 0.321
[1], 12.3 nM | – | 0.211
[1], 37 nM | – | 0.175
[1], 111.1 nM | – | 0.164
[1], 333.3 nM | – | 0.145
[1], 1000 nM | – | 0.129
[1], 3000 nM | – | 0.109
[2], 4.1 nM | – | 0.622
[2], 12.3 nM | – | 0.625
[2], 37 nM | – | 0.634
[2], 111.1 nM | – | 0.653
[2], 333.3 nM | – | 0.629
[2], 1000 nM | – | 0.446
[2], 3000 nM | – | 0.464
[3], 4.1 nM | – | 0.539
[3], 12.3 nM | – | 0.576
[3], 37 nM | – | 0.519
[3], 111.1 nM | – | 0.55
[3], 333.3 nM | – | 0.529
[3], 1000 nM | – | 0.519
[3], 3000 nM | – | 0.389
[4], 4.1 nM | – | 0.408
[4], 12.3 nM | – | 0.351
[4], 37 nM | – | 0.384
[4], 111.1 nM | – | 0.347
[4], 333.3 nM | – | 0.333
[4], 1000 nM | – | 0.288
[4], 3000 nM | – | 0.28
[5], 4.1 nM | – | 0.414
[5], 12.3 nM | – | 0.381
[5], 37 nM | – | 0.367
[5], 111.1 nM | – | 0.279
[5], 333.3 nM | – | 0.251
[5], 1000 nM | – | 0.206
[5], 3000 nM | – | 0.176
[6], 4.1 nM | – | 0.191
[6], 12.3 nM | – | 0.135
[6], 37 nM | – | 0.114
[6], 111.1 nM | – | 0.115
[6], 333.3 nM | – | 0.13
[6], 1000 nM | – | 0.113
[6], 3000 nM | – | 0.104
[7], 4.1 nM | – | 0.173
[7], 12.3 nM | – | 0.149
[7], 37 nM | – | 0.188
[7], 111.1 nM | – | 0.176
[7], 333.3 nM | – | 0.249
[7], 1000 nM | – | 0.17
[7], 3000 nM | – | 0.213
[8], 4.1 nM | 6.01 | –
[8], 12.3 nM | 7.66 | –
[8], 37 nM | 7.47 | –
[8], 111.1 nM | 7.5 | –
[8], 333.3 nM | 7.56 | –
[8], 1000 nM | 6.96 | –
[8], 3000 nM | 7.64 | –
[9], 4.1 nM | 2.65 | –
[9], 12.3 nM | 1.91 | –
[9], 37 nM | 2.54 | –
[9], 111.1 nM | 2.79 | –
[9], 333.3 nM | 2.66 | –
[9], 1000 nM | 3.43 | –
[9], 3000 nM | 3.06 | –
[10], 4.1 nM | 3.5 | –
[10], 12.3 nM | 2.99 | –
[10], 37 nM | 3.02 | –
[10], 111.1 nM | 2.09 | –
[10], 333.3 nM | 2.86 | –
[10], 1000 nM | 4.13 | –
[10], 3000 nM | 3.32 | –
[11], 4.1 nM | 3.44 | –
[11], 12.3 nM | 3.75 | –
[11], 37 nM | 3.05 | –
[11], 111.1 nM | 3.65 | –
[11], 333.3 nM | 3.55 | –
[11], 1000 nM | 4.27 | –
[11], 3000 nM | 4.08 | –
[12], 4.1 nM | 5.03 | –
[12], 12.3 nM | 5.52 | –
[12], 37 nM | 5.83 | –
[12], 111.1 nM | 6.68 | –
[12], 333.3 nM | 6.45 | –
[12], 1000 nM | 6.68 | –
[12], 3000 nM | 7.15 | –
[13], 4.1 nM | 4.95 | –
[13], 12.3 nM | 5.78 | –
[13], 37 nM | 6.25 | –
[13], 111.1 nM | 6.93 | –
[13], 333.3 nM | 5.67 | –
[13], 1000 nM | 5.76 | –
[13], 3000 nM | 5.07 | –
[14], 4.1 nM | 3.31 | –
[14], 12.3 nM | 3.53 | –
[14], 37 nM | 2.95 | –
[14], 111.1 nM | 3.38 | –
[14], 333.3 nM | 3.17 | –
[14], 1000 nM | 3.49 | –
[14], 3000 nM | 3.68 | –
